Assay results: US12565505B2, “mTORC modulators and uses thereof” (Aeovian Pharmaceuticals, Inc., priority 2019, dated 2026)

What was measured:
mTORC1 = target: T1, mTORC1 (Homo sapiens, UniProt P42345+P62942); test: Inhibition assay for mTORC1: phosphorylation of pS6K at Thr389, AlphaLISA SureFire in PC3 cells; assay type: cell-based; settings: PC3 cells, 24 hours treatment, pS6K Thr389; analogs substituted at C40 and C16 (C16 diastereomer mixtures not isolated); read-out: pIC50 mTORC1 (converted)
T1 construct: endogenous in cells; host or cells: PC3 cells (human prostate adenocarcinoma)
Experimental: (§1) The IC50s of the inhibition of mTORC1 and mTORC2 were determined in vitro by determining the phosphorylation of pS6K at position Thr389 (mTORC1 inhibition) and pAkt at Ser473 (mTORC2 inhibition). In vitro studies were performed with AiphaLISA® technology using PC3 cells (Prostate Adenocarcinoma; Human (Homo sapiens)). The cells were seeded in 96 well plates and were treated for 24 hours with the different compounds. […] All analysis were performed using GraphPad Prism 7.0 (GraphPad Software, San Diego, USA).
Tables 5-7 include PIC50 values for mTORC1 of selected compounds; with compounds having an PIC50 for mTORC1 of >9.5 as A, 8.5 to 9.5 as B, and less than 8.5 as C.

mTORC2 = target: T2, mTORC2 (Homo sapiens, UniProt P42345+P62942); test: Inhibition assay for mTORC2: phosphorylation of pAkt at Ser473, AlphaLISA SureFire in PC3 cells; assay type: cell-based; settings: PC3 cells, 24 hours treatment, analogs substituted at C40 and C16 (C16 diastereomer mixtures not isolated), read-out: pIC50 mTORC2 (converted)
T2 construct: endogenous in cells; host or cells: PC3 cells (human prostate adenocarcinoma)
Experimental: as §1, with “USA). […]” for “USA).”

In the case of `COCCOC1C[C@@H]2CC[C@@H](C)[C@@](O)(O2)C(=O)C(=O)N2CCCCC2C(=O)O[C@H]([C@H](C)C[C@@H]2CC[C@@H](OCCCO)[C@H](OC)C2)CC(=O)[C@H](C)/C=C(\C)[C@@H](O)[C@@H](OC)C(=O)[C@H](C)C[C@H](C)/C=C/C=C/C=C/1C` (stereo partly shown) [Compound 28], the IC50 (mTORC1) is reported as under 0.316 nM and the IC50 (mTORC2) is reported as 1000 to 10000 nM.

For `COCCOCCOC1C[C@@H]2CC[C@@H](C)[C@@](O)(O2)C(=O)C(=O)N2CCCCC2C(=O)O[C@H]([C@H](C)C[C@@H]2CC[C@@H](OCCO)[C@H](OC)C2)CC(=O)[C@H](C)/C=C(\C)[C@@H](O)[C@@H](OC)C(=O)[C@H](C)C[C@H](C)/C=C/C=C/C=C/1C` (stereo partly shown) [Compound 20], the IC50 (mTORC1) was under 0.316 nM and the IC50 (mTORC2) was over 10000 nM.

For `CO[C@@H]1C[C@H](C[C@@H](C)[C@@H]2CC(=O)[C@H](C)/C=C(\C)[C@@H](O)[C@@H](OC)C(=O)[C@H](C)C[C@H](C)/C=C/C=C/C=C(\C)C(OCCc3ccccc3)C[C@@H]3CC[C@@H](C)[C@@](O)(O3)C(=O)C(=O)N3CCCCC3C(=O)O2)CC[C@H]1OC(=O)NCCc1c[nH]cn1` (stereo partly shown) [Compound 110], the IC50 (mTORC1) was under 0.316 nM and the IC50 (mTORC2) was under 1000 nM.

`CO[C@@H]1C[C@H](C[C@@H](C)[C@@H]2CC(=O)[C@H](C)/C=C(\C)[C@@H](O)[C@@H](OC)C(=O)[C@H](C)C[C@H](C)/C=C/C=C/C=C(\C)C(OCCO)C[C@@H]3CC[C@@H](C)[C@@](O)(O3)C(=O)C(=O)N3CCCCC3C(=O)O2)CC[C@H]1OCCCN1CCOCC1` (stereo partly drawn) [Compound 55, (1R,9S,12SR,15R,16E,18R,19R,21R,23S,24E,26E,28E,32S,35R)-1,18-dihydroxy-30-(2-hydroxyethoxy)-19-methoxy-12-[(1R)-2-[(1S,3R,4R)-3-methoxy-4-(3-morpholinopropoxy)cyclohexyl]-1-methyl-ethyl]-15,17,21,23,29,35-hexamethyl-11,36-dioxa-4-azatricyclo[30.3.1.0^4,9]hexatriaconta-16,24,26,28-tetraene-2,3,10,14,20-pentone] gave an IC50 (mTORC1) of under 0.316 nM and an IC50 (mTORC2) of 1000 to 10000 nM.

Compound `COCCOC1C[C@@H]2CC[C@@H](C)[C@@](O)(O2)C(=O)C(=O)N2CCCCC2C(=O)O[C@H]([C@H](C)C[C@@H]2CC[C@@H](OCCCN3CCC(O)CC3)[C@H](OC)C2)CC(=O)[C@H](C)/C=C(\C)[C@@H](O)[C@@H](OC)C(=O)[C@H](C)C[C@H](C)/C=C/C=C/C=C/1C` (stereo partly shown) [Compound 85] has an IC50 (mTORC1) of 0.316 to 3.16 nM and an IC50 (mTORC2) of 1000 to 10000 nM.

`CO[C@@H]1C[C@H](C[C@@H](C)[C@@H]2CC(=O)[C@H](C)/C=C(\C)[C@@H](O)[C@@H](OC)C(=O)[C@H](C)C[C@H](C)/C=C/C=C/C=C(\C)C(OCCO)C[C@@H]3CC[C@@H](C)[C@@](O)(O3)C(=O)C(=O)N3CCCCC3C(=O)O2)CC[C@H]1OCCCN1C[C@@H](C)O[C@@H](C)C1` (stereo partly shown) [Compound 18] showed an IC50 (mTORC1) of under 0.316 nM and an IC50 (mTORC2) of over 10000 nM.

`COCCOC1C[C@@H]2CC[C@@H](C)[C@@](O)(O2)C(=O)C(=O)N2CCCCC2C(=O)O[C@H]([C@H](C)C[C@@H]2CC[C@@H](OC[C@@H](O)CO)[C@H](OC)C2)CC(=O)[C@H](C)/C=C(\C)[C@@H](O)[C@@H](OC)C(=O)[C@H](C)C[C@H](C)/C=C/C=C/C=C/1C` (stereo partly shown) [Compound 58] showed an IC50 (mTORC1) of under 0.316 nM and an IC50 (mTORC2) of 1000 to 10000 nM.

In the case of `CO[C@@H]1C[C@H](C[C@@H](C)[C@@H]2CC(=O)[C@H](C)/C=C(\C)[C@@H](O)[C@@H](OC)C(=O)[C@H](C)C[C@H](C)/C=C/C=C/C=C(\C)C(OCCc3ccccc3)C[C@@H]3CC[C@@H](C)[C@@](O)(O3)C(=O)C(=O)N3CCCCC3C(=O)O2)CC[C@H]1OCCCN1CCN(C)CC1` (stereo partly shown) [Compound 97], the IC50 (mTORC1) is reported as under 0.316 nM and the IC50 (mTORC2) is reported as under 1000 nM.

In the case of `CO[C@@H]1C[C@H](C[C@@H](C)[C@@H]2CC(=O)[C@H](C)/C=C(\C)[C@@H](O)[C@@H](OC)C(=O)[C@H](C)C[C@H](C)/C=C/C=C/C=C(\C)C(OC[C@@H](O)c3ccccc3)C[C@@H]3CC[C@@H](C)[C@@](O)(O3)C(=O)C(=O)N3CCCCC3C(=O)O2)CC[C@H]1OCCCN1CCOCC1` (stereo partly shown) [Compound 92], the IC50 (mTORC1) is reported as under 0.316 nM and the IC50 (mTORC2) is reported as 1000 to 10000 nM.

In the case of `COCCOC1C[C@@H]2CC[C@@H](C)[C@@](O)(O2)C(=O)C(=O)N2CCCCC2C(=O)O[C@H]([C@H](C)C[C@@H]2CC[C@@H](OCCN3CCCCC3)[C@H](OC)C2)CC(=O)[C@H](C)/C=C(\C)[C@@H](O)[C@@H](OC)C(=O)[C@H](C)C[C@H](C)/C=C/C=C/C=C/1C` (stereo partly shown) [Compound 51], the IC50 (mTORC1) is reported as under 0.316 nM and the IC50 (mTORC2) is reported as 1000 to 10000 nM.

`CO[C@@H]1C[C@H](C[C@@H](C)[C@@H]2CC(=O)[C@H](C)/C=C(\C)[C@@H](O)[C@@H](OC)C(=O)[C@H](C)C[C@H](C)/C=C/C=C/C=C(\C)C(OCCc3ccccc3)C[C@@H]3CC[C@@H](C)[C@@](O)(O3)C(=O)C(=O)N3CCCCC3C(=O)O2)CC[C@H]1OC(=O)N(C)CCO` (stereo partly shown) [Compound 105] was tested, and the IC50 (mTORC1) was under 0.316 nM and the IC50 (mTORC2) was under 1000 nM.

Compound `COCCCCOC1C[C@@H]2CC[C@@H](C)[C@@](O)(O2)C(=O)C(=O)N2CCCCC2C(=O)O[C@H]([C@H](C)C[C@@H]2CC[C@@H](OCCO)[C@H](OC)C2)CC(=O)[C@H](C)/C=C(\C)[C@@H](O)[C@@H](OC)C(=O)[C@H](C)C[C@H](C)/C=C/C=C/C=C/1C` (stereo partly shown) [Compound 102] has an IC50 (mTORC1) of under 0.316 nM and an IC50 (mTORC2) of 1000 to 10000 nM.

For `CO[C@@H]1C[C@H](C[C@@H](C)[C@@H]2CC(=O)[C@H](C)/C=C(\C)[C@@H](O)[C@@H](OC)C(=O)[C@H](C)C[C@H](C)/C=C/C=C/C=C(\C)C(OCCO)C[C@@H]3CC[C@@H](C)[C@@](O)(O3)C(=O)C(=O)N3CCCCC3C(=O)O2)CC[C@H]1OCCN1CCOCC1` (stereo partly shown) [Compound 8], the IC50 (mTORC1) was under 0.316 nM and the IC50 (mTORC2) was over 10000 nM.

In the case of `CO[C@@H]1C[C@H](C[C@@H](C)[C@@H]2CC(=O)[C@H](C)/C=C(\C)[C@@H](O)[C@@H](OC)C(=O)[C@H](C)C[C@H](C)/C=C/C=C/C=C(\C)C(OCCO)C[C@@H]3CC[C@@H](C)[C@@](O)(O3)C(=O)C(=O)N3CCCCC3C(=O)O2)CC[C@H]1OC(=O)NCCn1cnnn1` (stereo partly shown) [Compound 89], the IC50 (mTORC1) is reported as 0.316 to 3.16 nM and the IC50 (mTORC2) is reported as 1000 to 10000 nM.

In the case of `COCCOC1C[C@@H]2CC[C@@H](C)[C@@](O)(O2)C(=O)C(=O)N2CCCCC2C(=O)O[C@H]([C@H](C)C[C@@H]2CC[C@@H](OC(=O)NCCN3CCCCC3)[C@H](OC)C2)CC(=O)[C@H](C)/C=C(\C)[C@@H](O)[C@@H](OC)C(=O)[C@H](C)C[C@H](C)/C=C/C=C/C=C/1C` (stereo partly shown) [Compound 57], the IC50 (mTORC1) is reported as under 0.316 nM and the IC50 (mTORC2) is reported as 1000 to 10000 nM.

`CO[C@@H]1C[C@H](C[C@@H](C)[C@@H]2CC(=O)[C@H](C)/C=C(\C)[C@@H](O)[C@@H](OC)C(=O)[C@H](C)C[C@H](C)/C=C/C=C/C=C(\C)C(OCCCCO)C[C@@H]3CC[C@@H](C)[C@@](O)(O3)C(=O)C(=O)N3CCCC[C@H]3C(=O)O2)CC[C@H]1OCCCO` (mixture of isomers) [Compound 68] was tested, and the IC50 (mTORC1) was under 0.316 nM and the IC50 (mTORC2) was 1000 to 10000 nM.

`CO[C@@H]1C[C@H](C[C@@H](C)[C@@H]2CC(=O)[C@H](C)/C=C(\C)[C@@H](O)[C@@H](OC)C(=O)[C@H](C)C[C@H](C)/C=C/C=C/C=C(\C)C(OCCO)C[C@@H]3CC[C@@H](C)[C@@](O)(O3)C(=O)C(=O)N3CCCCC3C(=O)O2)CC[C@H]1OC(=O)NCCN1CCOCC1` (stereo partly shown) [Compound 82] gave an IC50 (mTORC1) of 0.316 to 3.16 nM and an IC50 (mTORC2) of 1000 to 10000 nM.

For `COCCOC1C[C@@H]2CC[C@@H](C)[C@@](O)(O2)C(=O)C(=O)N2CCCCC2C(=O)O[C@H]([C@H](C)C[C@@H]2CC[C@@H](OCCCN3C[C@@H](C)O[C@@H](C)C3)[C@H](OC)C2)CC(=O)[C@H](C)/C=C(\C)[C@@H](O)[C@@H](OC)C(=O)[C@H](C)C[C@H](C)/C=C/C=C/C=C/1C` (stereo partly shown) [Compound 59], the IC50 (mTORC1) was under 0.316 nM and the IC50 (mTORC2) was 1000 to 10000 nM.

`CO[C@@H]1C[C@H](C[C@@H](C)[C@@H]2CC(=O)[C@H](C)/C=C(\C)[C@@H](O)[C@@H](OC)C(=O)[C@H](C)C[C@H](C)/C=C/C=C/C=C(\C)C(OC[C@H](O)c3ccccc3)C[C@@H]3CC[C@@H](C)[C@@](O)(O3)C(=O)C(=O)N3CCCCC3C(=O)O2)CC[C@H]1OCCO` (stereo partly shown) [Compound 88] was tested, and the IC50 (mTORC1) was under 0.316 nM and the IC50 (mTORC2) was 1000 to 10000 nM.

`CO[C@@H]1C[C@H](C[C@@H](C)[C@@H]2CC(=O)[C@H](C)/C=C(\C)[C@@H](O)[C@@H](OC)C(=O)[C@H](C)C[C@H](C)/C=C/C=C/C=C(\C)C(OCCO)C[C@@H]3CC[C@@H](C)[C@@](O)(O3)C(=O)C(=O)N3CCCC[C@H]3C(=O)O2)CC[C@H]1OCCCN1CCO[C@H](C)C1` (mixture of isomers) [Compound 13] gave an IC50 (mTORC2) of over 10000 nM.

For `CO[C@@H]1C[C@H](C[C@@H](C)[C@@H]2CC(=O)[C@H](C)/C=C(\C)[C@@H](O)[C@@H](OC)C(=O)[C@H](C)C[C@H](C)/C=C/C=C/C=C(\C)C(OCCO)C[C@@H]3CC[C@@H](C)[C@@](O)(O3)C(=O)C(=O)N3CCCCC3C(=O)O2)CC[C@H]1OCCCN1CCO[C@H](C)C1` (stereo partly shown) [Compound 43], the IC50 (mTORC2) was 1000 to 10000 nM.
